Reference: ChEMBL document CHEMBL2073804, “Transport of the beta -O-glucuronide conjugate of the tobacco-specific carcinogen 4-(methylnitrosamino)-1-(3-pyridyl)-1-butanol (NNAL) by the multidrug resistance protein 1 (MRP1). Requirement for glutathione or a non-sulfur-containing analog” (J Biol Chem, 2001)

Molecular target: ATP-binding cassette sub-family C member 2 (Homo sapiens, UniProt Q92887)
Assay: TP_TRANSPORTER: uptake in membrane vesicle from MRP2-expressing HEK293T cells
Type: functional, cell membranes
Details: hek293

Chain of ATP-binding cassette sub-family C member 2 (Q92887 whole entry): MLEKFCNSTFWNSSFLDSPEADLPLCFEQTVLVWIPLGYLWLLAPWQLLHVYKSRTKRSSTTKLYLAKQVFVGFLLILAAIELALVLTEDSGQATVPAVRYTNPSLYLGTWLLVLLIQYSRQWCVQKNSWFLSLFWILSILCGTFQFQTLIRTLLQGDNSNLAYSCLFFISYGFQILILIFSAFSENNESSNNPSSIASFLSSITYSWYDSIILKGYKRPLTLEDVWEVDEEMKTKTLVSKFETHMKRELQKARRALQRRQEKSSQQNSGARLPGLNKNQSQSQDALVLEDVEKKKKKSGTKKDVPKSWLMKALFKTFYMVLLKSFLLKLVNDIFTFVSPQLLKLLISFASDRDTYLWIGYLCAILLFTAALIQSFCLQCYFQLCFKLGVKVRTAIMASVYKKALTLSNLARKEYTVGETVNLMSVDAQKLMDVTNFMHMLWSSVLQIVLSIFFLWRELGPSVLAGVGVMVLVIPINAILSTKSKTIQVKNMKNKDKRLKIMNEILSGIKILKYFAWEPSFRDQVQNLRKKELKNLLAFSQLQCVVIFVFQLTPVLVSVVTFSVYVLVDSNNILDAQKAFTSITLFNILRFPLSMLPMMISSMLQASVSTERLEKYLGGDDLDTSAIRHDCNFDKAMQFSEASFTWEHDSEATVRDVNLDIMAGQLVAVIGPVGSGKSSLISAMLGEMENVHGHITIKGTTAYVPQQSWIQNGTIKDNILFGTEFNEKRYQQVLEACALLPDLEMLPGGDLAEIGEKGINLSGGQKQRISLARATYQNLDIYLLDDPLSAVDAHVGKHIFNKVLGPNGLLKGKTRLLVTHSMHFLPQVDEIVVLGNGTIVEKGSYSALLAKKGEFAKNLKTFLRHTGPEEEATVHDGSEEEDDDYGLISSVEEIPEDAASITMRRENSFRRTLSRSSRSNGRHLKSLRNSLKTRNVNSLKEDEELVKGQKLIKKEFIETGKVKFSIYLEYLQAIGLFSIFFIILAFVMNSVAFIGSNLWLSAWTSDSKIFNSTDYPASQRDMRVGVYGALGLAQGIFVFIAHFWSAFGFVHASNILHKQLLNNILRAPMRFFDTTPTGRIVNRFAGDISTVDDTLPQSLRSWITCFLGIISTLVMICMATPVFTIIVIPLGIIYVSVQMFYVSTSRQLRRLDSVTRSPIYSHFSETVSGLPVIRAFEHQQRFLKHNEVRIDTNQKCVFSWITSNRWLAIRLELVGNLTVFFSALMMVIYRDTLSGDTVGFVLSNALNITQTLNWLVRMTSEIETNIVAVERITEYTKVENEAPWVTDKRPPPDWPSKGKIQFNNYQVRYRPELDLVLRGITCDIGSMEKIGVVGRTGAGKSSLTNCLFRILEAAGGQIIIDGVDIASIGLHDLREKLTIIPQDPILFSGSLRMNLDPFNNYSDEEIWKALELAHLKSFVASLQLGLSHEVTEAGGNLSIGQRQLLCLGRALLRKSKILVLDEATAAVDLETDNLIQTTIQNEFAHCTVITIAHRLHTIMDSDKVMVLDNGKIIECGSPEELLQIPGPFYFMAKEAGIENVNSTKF

Activity: substrate [+]
SMILES: CN(CCCC(C[C@@H]1O[C@H](C(=O)O)[C@@H](O)[C@H](O)[C@H]1O)c1cccnc1)N=O (stereo partly specified)
